# In PMC8698721, “Exploration of the Structure–Function Relationships of a Novel Frog Skin Secretion-Derived Bioactive Peptide, t-DPH1, through Use of Rational Design, Cationicity Enhancement and In Vitro Studies” (Antibiotics, 2021):
# Read-outs that look alike come from different tables or passages of the source. Where a SMILES comes first, the peptide text is derived from it.
# Columns and labels:
# S. aureus (ATCC 6538) = assay type: cell-based, Staphylococcus aureus; conditions: ATCC 6538, 24 h
# Procedure: (§1) To assess the antimicrobial activity of t-DPH1 and its designed analogues, MIC and MBC assays were conducted. Seven microorganism strains were used in the assay: Gram-positive bacteria S. aureus (ATCC 6538), E. faecalis (NCTC 12697) and MRSA (NCTC 12493); Gram-negative bacteria E. coli (ATCC 8739), P. aeruginosa (ATCC 9027) and K. pneumoniae (ATCC 43816); yeast, C. albicans (ATCC 10231).
# (§2) For MIC assay, the microorganisms were initially incubated in Mueller-Hinton broth (MHB) (for bacteria) or yeast extract peptone dextrose broth (YPD-B) (for yeast) overnight and sub-cultured to achieve their respective logarithmic growth phases (5 × 10^5 CFU/mL). Then, 99 μL of each microorganism and 1 μL of the tested peptide solution were incubated in a 96-well plate. The final on-plate peptide concentrations were from 1 to 512 μM. Except for the peptide group, four other groups were set when conducting this experiment, including a negative control group (PBS), a vehicle control group (1% DMSO), a positive control group (bacteria: 20 μg/mL norfloxacin; yeast: amphotericin B) and a blank control group (MHB or YPD-B with no microorganism culture). Thus, the MIC value represents the lowest concentration of peptides at which no visible growth of the microorganism after 24 h incubation. For the MBC assay, 10 μL of the medium from each clear well was inoculated onto a Mueller–Hinton agar (MHA) (for bacteria) or yeast extract peptone dextrose agar (YPD-A) (for yeast) plate and incubated for 24 h for measurement MBC values.
# [1] = system: Enterococcus faecalis (E. faecalis) (NCTC 12697); assay type: cell-based; conditions: NCTC 12697, 24 h
# Procedure: as §1, §2
# [2] = system: Methicillin-resistant Staphylococcus aureus (MRSA) (NCTC 12493); assay type: cell-based; conditions: NCTC 12493, 24 h
# Procedure: as §1, §2
# E. coli (ATCC 8739) = assay type: cell-based, Escherichia coli; conditions: ATCC 8739, 24 h
# Procedure: as §1, §2
# [3] = system: K. pneumoniae (ATCC 43816); assay type: cell-based, Klebsiella pneumoniae; conditions: ATCC 43816, 24 h
# Procedure: as §1, §2
# [4] = system: P. aeruginosa (ATCC 9027); assay type: cell-based, Pseudomonas aeruginosa; conditions: ATCC 9027, 24 h
# Procedure: as §1, §2
# C. albicans (ATCC 10231) = assay type: cell-based, Candida albicans; conditions: ATCC 10231, 24 h
# Procedure: as §1, §2
# [5] = system: HMEC-1 (human microvascular endothelial cell line); assay type: cell-based; conditions: 24 h
# Procedure: (§3) The MTT assay was conducted to verify the proliferation inhibitory effect of t-DPH1 and its analogues. Human cancer cell lines (NCI-H838 (ATCC® CRL-5844, human non-small cell lung cancer)), (NCI-H157(ATCC® CRL-5802, human non-small cell lung cancer cell line)), (U251MG (ECACC 09063001, human neuronal glioblastoma cancer cell line)), (PC-3 (ATCC® CRL-1435TM, human prostate carcinoma cancer cell line)) and normal human cell lines (HMEC-1(ATCC®-CRL-3243, human microvascular endothelial cell line)) and (HaCaT (ATCC®-PCS-200-011, human keratinocyte cell)) were purchased from the American Type Culture Collection (ATCC, Manassas, VA, USA) and the European Collection of Cell Cultures (ECACC, Sallisbury, UK) for this assay. For the MTT assay, 8000 cells/per well were seeded in the 96-well plate for 24 h. Subsequently, experiment groups were dosed with fresh serum-free medium containing different concentrations of peptides (100 μM to 10 nM) in 3 replicates. Negative control groups and positive control groups were dosed with the fresh serum-free medium containing equal amounts of PBS, and 0.1% (w/v) Triton X-100, respectively. Then the 96-well plate was incubated at 37 °C with 5% CO2 for 24 h. After, ten microliters of MTT solution (5 mg/mL) (Sigma-Aldrich UK Ltd., Gillingham, UK) were added to each well and incubated in a dark environment for two hours. Then, the solution in each well was removed and 100 μL of DMSO were added and then the plate was shaken for 10 min on a shaking incubator before detecting the OD value by use of a Synergy HT plate reader (BioTek, Minneapolis, MN, USA) at λ = 570 nm.
# [6] = system: HaCaT (human keratinocyte cell); assay type: cell-based; conditions: 24 h
# Procedure: as §3
# [7] = system: NCI-H157 (human non-small cell lung cancer cell line); assay type: cell-based; conditions: 24 h
# Procedure: as §3
# [8] = system: NCI-H838 (human non-small cell lung cancer); assay type: cell-based; conditions: 24 h
# Procedure: as §3
# [9] = system: PC-3 (human prostate carcinoma cancer cell line); assay type: cell-based; conditions: 24 h
# Procedure: as §3
# horse red blood cells = assay type: cell-based
# Procedure: The haemolysis assay was performed by mixing 2% (v/v) fresh defibrinated horse blood (TCS Biosciences Ltd., Buckingham, UK) with peptides in different concentrations. Before the test, horse blood was rinsed with PBS three to four times until the supernatant was clear. Next, peptide solutions (from 100 μM to 1 nM) were incubated with the suspension of red blood cells at 37 °C for two hours. The blood cells treated with 1% Triton-X 100 were used as the positive control, and the blood cells treated with PBS were used as the negative control. After incubation, 100 μL of the supernatant from each sample were transferred to a new 96-well plate, and the OD value of each well was measured with a Synergy HT plate reader (BioTek, Minneapolis, MN, USA) with the absorbance set to 570 nm.
# [10] = system: U251MG (human neuronal glioblastoma cancer cell line); assay type: cell-based; conditions: 24 h
# Procedure: as §3
SMILES,MBC (S. aureus (ATCC 6538)) [µM],MIC (S. aureus (ATCC 6538)) [µM],MBC [1] [µM],MIC [1] [µM],MBC [2] [µM],MIC [2] [µM],MBC (E. coli (ATCC 8739)) [µM],MIC (E. coli (ATCC 8739)) [µM],MBC [3] [µM],MIC [3] [µM],MBC [4] [µM],MIC [4] [µM],MBC (C. albicans (ATCC 10231)) [µM],MIC (C. albicans (ATCC 10231)) [µM],IC50 against HMEC-1 [5] [µM],IC50 against HaCaT [6] [µM],IC50 [7] [µM],IC50 [8] [µM],IC50 [9] [µM],IC50 [10] [µM],also measured
CC[C@H](C)[C@H](NC(=O)[C@H](CCCCN)NC(=O)[C@H](CCCCN)NC(=O)[C@H](Cc1c[nH]c2ccccc12)NC(=O)[C@H](CC(C)C)NC(=O)[C@@H](N)Cc1c[nH]c2ccccc12)C(=O)N[C@@H](CCCCN)C(=O)N[C@@H](CC(N)=O)C(=O)N[C@H](C(=O)N[C@@H](C)C(=O)N[C@@H](CCCCN)C(=O)N[C@@H](C)C(=O)N[C@@H](C)C(=O)NCC(=O)N[C@@H](CCCCN)C(=O)N[C@@H](C)C(=O)N[C@@H](C)C(=O)N[C@@H](CCCCN)C(=O)NCC(=O)N[C@@H](C)C(=O)N[C@@H](CC(C)C)C(N)=O)C(C)C [t-DPH1-6KW] (H-WLWKKIKNVAKAAGKAAKGAL-NH2),128,128,> 512,512,256,128,4,2,64,64,128,64,> 512,512,293.2,119.3,427,181,118,,HC50 (horse red blood cells): 2094 µM
CC[C@H](C)[C@H](NC(=O)[C@H](CCCCN)NC(=O)[C@H](CCCCN)NC(=O)[C@H](Cc1c[nH]c2ccccc12)NC(=O)[C@H](CC(C)C)NC(=O)CN)C(=O)N[C@@H](CCCCN)C(=O)N[C@@H](CC(N)=O)C(=O)N[C@H](C(=O)N[C@@H](C)C(=O)N[C@@H](CCCCN)C(=O)N[C@@H](C)C(=O)N[C@@H](C)C(=O)NCC(=O)N[C@@H](CCCCN)C(=O)N[C@@H](C)C(=O)N[C@@H](C)C(=O)N[C@@H](CC(C)C)C(=O)NCC(=O)N[C@@H](C)C(=O)N[C@@H](CC(C)C)C(N)=O)C(C)C [t-DPH1-5K] (H-GLWKKIKNVAKAAGKAALGAL-NH2),2,2,16,8,4,2,4,2,4,2,8,4,512,256,3.897,3.332,1.55,1.8,2.6,2.68,haemolysis (horse red blood cells; 10 µM): ~40%; HC50 (horse red blood cells; red cells of horse): 19.39 µM
CC[C@H](C)[C@H](NC(=O)[C@H](CCCCN)NC(=O)[C@H](CCCCN)NC(=O)[C@H](Cc1c[nH]c2ccccc12)NC(=O)[C@H](CC(C)C)NC(=O)CN)C(=O)N[C@@H](CCCCN)C(=O)N[C@@H](CC(N)=O)C(=O)N[C@H](C(=O)N[C@@H](C)C(=O)N[C@@H](CCCCN)C(=O)N[C@@H](C)C(=O)N[C@@H](C)C(=O)NCC(=O)N[C@@H](CCCCN)C(=O)N[C@@H](C)C(=O)N[C@@H](C)C(=O)N[C@@H](CCCCN)C(=O)NCC(=O)N[C@@H](C)C(=O)N[C@@H](CC(C)C)C(N)=O)C(C)C [t-DPH1-6K] (H-GLWKKIKNVAKAAGKAAKGAL-NH2),8,4,512,256,64,32,4,2,8,4,16,8,128,64,340.2,151.4,88.3,186,55.6,594,HC50 (horse red blood cells; red cells of horse): 834.6 µM
